For seven molecules, IC50 results are on record in patent US11364248B2 (AMGEN INC., priority 2017, dated 2022).

Read-outs that look alike come from different tables or passages of the source.

One assay addresses Mcl-1/Bim interaction (Homo sapiens (Human), UniProt Q07820). The experiment in a line: Cell Free Mcl-1: Bim Affinity Assay (Mcl-1 HTRF). It is filed as binding. Conditions: TR-FRET, recombinant human Mcl-1(171-327), biotin-Bim(51-76); read-out: Mel-1 HTRF IC50. In a few lines: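 TR-FRET competition assay: 0.1 nM His-tagged human Mcl-1(171-327) and 0.05 nM biotin-Bim(51-76) were pre-incubated 60 min with compound in 20 mM Hepes pH 7.5, 150 mM NaCl, Brij35, 1 mM DTT, then with Eu-anti-His/streptavidin-Xlent overnight. The 665/620 nm ratio was fitted by four-parameter model to IC50 (duplicates).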

In another assay the test system is OPM-2. Nature of the assay: Cell Viability Assay (OPM-2 10 FBS). As to conditions: OPM-2 cells, CellTiter-Glo, read-out: OPM-2 10% FBS IC50 IP. It is filed as cell-based, human. The procedure, abridged: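 OPM-2 myeloma cells seeded at 3000 cells/well in RPMI 1640 with 10% FBS and exposed to serially diluted compounds for 16 h at 37° C., 5% CO2.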

Mcl-1/Bim interaction, sequence (Q07820 171-327): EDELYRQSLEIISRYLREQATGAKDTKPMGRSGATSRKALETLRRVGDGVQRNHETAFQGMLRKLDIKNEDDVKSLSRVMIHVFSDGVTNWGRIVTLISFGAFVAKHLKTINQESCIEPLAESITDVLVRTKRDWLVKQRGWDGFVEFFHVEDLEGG

With `C[C@@H]1CC[C@H]([C@H]2OC[C@@H](N(C)C)CO2)[C@@H]2CC[C@H]2CN2C[C@@]3(CCCc4cc(Cl)ccc43)COc3ccc(cc32)C(=O)NS(=O)(=O)C[C@@H]1C` [Example 76, (1S,3′R,6′R,7′S,10′R,11′R)-6-chloro-7′-(cis-5-(dimethylamino)-1,3-dioxan-2-yl)-10′,11′-dimethyl-3,4-dihydro-2H,15′H-spiro[naphthalene-1,22′-[20]oxa[13]thia[1,14]diazatetracyclo [14.7.2.0~3,6~.0~19,24~]pentacosa[16,18,24]trien]-15′-one 13′,13′-dioxide], the IC50 is 6.24 nM on Mcl-1/Bim interaction and 2480 nM with OPM-2 (16 h).
For `C[C@@H]1[C@@H](C)CCC[C@H](C2OCCO2)[C@@H]2CC[C@H]2CN2C[C@@]3(CCCc4cc(Cl)ccc43)COc3ccc(cc32)C(=O)NS1(=O)=O` [Example 4, (1S,3′R,6′R,7′S,11′S,12′R)-6-chloro-7′-(1,3-dioxolan-2-yl)-11′,12′-dimethyl-3,4-dihydro-2H,15′H-spiro[naphthalene-1,22′-[20]oxa[13]thia[1,14]diazatetracyclo [14.7.2.0~3,6~.0~19,24~]pentacosa[16,18,24]trien]-15′-one 13′,13′-dioxide] the same measures were 1.92 nM and 2150 nM.
For `C[C@@H]1[C@@H](C)CCC[C@H]([C@H]2O[C@H]3CNC[C@H]3O2)[C@@H]2CC[C@H]2CN2C[C@@]3(CCCc4cc(Cl)ccc43)COc3ccc(cc32)C(=O)NS1(=O)=O` (stereo in doubt) [Example 9, (1S,3′R,6′R,7′R,11′S,12′R)-6-chloro-11′,12′-dimethyl-7′-((2r,3aR,6aS)-tetrahydro-3aH-[1,3]dioxolo[4,5-c]pyrrol-2-yl)-3,4-dihydro-2H,15′H-spiro[naphthalene-1,22′-[20]oxa[13]thia[1,14]diazatetracyclo [14.7.2.0~3,6~.0~19,24~]pentacosa[16,18,24]trien]-15′-one 13′,13′-dioxide] the same measures were 0.49 nM and 381 nM.
For the molecule `C[C@@H]1[C@@H](C)CCC[C@@H]([C@H]2OC[C@@H](N3CCC3(C)C)CO2)[C@@H]2CC[C@H]2CN2C[C@@]3(CCCc4cc(Cl)ccc43)COc3ccc(cc32)C(=O)NS1(=O)=O` (single isomer, unassigned) [Example 63], the IC50 stood at 2.06 nM at Mcl-1/Bim interaction and 1150 nM in the assay with OPM-2 (16 h).
For `C[C@@H]1[C@@H](C)CCC[C@@H]([C@H]2OC[C@@H](N3CC(Cl)C3)CO2)[C@@H]2CC[C@H]2CN2C[C@@]3(CCCc4cc(Cl)ccc43)COc3ccc(cc32)C(=O)NS1(=O)=O` (single isomer, unassigned) [Example 56] the same measures were 1.98 nM and 1900 nM.
Regarding `CC(=O)N(C)[C@H]1CO[C@@H]([C@H]2CCC[C@H](C)[C@@H](C)S(=O)(=O)NC(=O)c3ccc4c(c3)N(C[C@@H]3CC[C@H]32)C[C@@]2(CCCc3cc(Cl)ccc32)CO4)OC1` [Example 47, N-(cis-2-((1S,3′R,6′R,7′S,11′S,12′R)-6-chloro-11′,12′-dimethyl-13′,13′-dioxido-15′-oxo-3,4-dihydro-2H-spiro[naphthalene-1,22′-[20]oxa[13]thia[1,14]diazatetracyclo [14.7.2.0~3,6~.0~19,24~]pentacosa[16,18,24]trien]-7′-yl)-1,3-dioxan-5-yl)-N-methylacetamide], the IC50 on Mcl-1/Bim interaction turned out to be 0.568 nM; in the assay on OPM-2 (Homo sapiens, OPM-2, 16 h), 545 nM.
For `C[C@@H]1[C@@H](C)CCC[C@](C)([C@H]2OC[C@@H](N(C)C)CO2)[C@@H]2CC[C@H]2CN2C[C@@]3(CCCc4cc(Cl)ccc43)COc3ccc(cc32)C(=O)NS1(=O)=O` [Example 65, (1S,3′R,6′R,7′S,11′S,12′R)-6-chloro-7′-(cis-5-(dimethylamino)-1,3-dioxan-2-yl)-7′,11′,12′-trimethyl-3,4-dihydro-2H,15′H-spiro[naphthalene-1,22′-[20]oxa[13]thia[1,14]diazatetracyclo [14.7.2.0~3,6~.0~19,24~]pentacosa[16,18,24]trien]-15′-one 13′,13′-dioxide] the same measures were 5.02 nM and 1560 nM.
